Source: patent US10806729B2, “Quinoline derivatives for use in the treatment or prevention of viral infection” (ABIVAX, priority 2015, dated 2020)

Experiments:
[1] = system: resistant mutants of NL4.3 strain (K103N, K65R and M184V); conditions: human PBMCs, NL4.3 mutants K103N
HIV-1 = system: HIV-1
Experimental: Resistance to Compound 22 was tested on human PBMCs and compared to current therapies. […] Various classes of antiviral agents can affect the life cycle of HIV-1 in different manners. […] The selection of drug resistant mutants in vitro can be readily accomplished by maintaining the virus in a state of sub-optimal growth, regulated by slowly increasing the amount of drug pressure applied. This technique mimics the consequences of drug therapy in patients. Therefore, in this way, novel compounds can be assessed for their selection profile in order to evaluate the likelihood of emergence of HIV-1 drug resistance in future clinical trials. In addition, combinations of drugs can be investigated in the same manner.

JRCSF HIV-1 strain = assay: Reconstituted SCID mice infected with JRCSF HIV-1 strain; assay type: in vivo, mouse
Experimental: FIG. 3. Efficacy of Compound 22 to inhibit viral replication in humanized mice. A) Reconstituted SCID mice were infected with JRCSF HIV-1 strain by intraperitoneal injection. Control group received by gavage labrafil and 5% DMSO (n=15) and treated group 20 mg/kg b.i.d of Compound 22 in labrafil and 5% DMSO (n=14) for 15 days. Two independent experiments were performed with 5 and 10 reconstituted mice for each group. Viral load was assessed by measuring viral RNA using the Amplicor HIV-1 Monitor from Roche. B) FACS analysis was performed on peritoneal wash at day 15 post-treatment to assess the CD8/CD4 ratio. C) Engrafted NSG humanized mice were treated by oral gavage with Compound 22 at either 20 mg or 40 mg/kg once a day for 30 days and indicated lymphocyte populations (CD45+; CD4+ and CD8+) were monitored by FACS analysis. D) NSG humanized mice were infected with the YU2 HIV-1 virus and treated either by oral gavage with Compound 22 at 40 mg/kg once a day for 30 days or by HAART (3TC-Tenofovir-Raltegravir and AZT). […] Viral load was assessed by measuring viral RNA using the Amplicor HIV-1 Monitor from Roche. […]
Briefly, TCID50 (tissue culture infectious dose 50%) was determined by infecting human CD8+ T-cell-depleted peripheral blood mononuclear cells (PBMCs) from three donors which were stimulated by addition of IL-2, PHA and anti-CD3 beads (Dynal 11131D, Life Technologies). […] HIV RNA plasma levels were measured by RT-PCR (Amplicor HIV-1 test or AmpliPrep/COBAS TaqMan HIV-1 Test, Roche) at various times after infection.
Cell suspensions were labeled with anti-human monoclonal antibodies (mAb) targeting the following cell-surface markers: CD45-FITC, CD3-PE, CD4-Pe Cy7, CD8-BV421 and CD19-APC (all from Biolegend). Washing and reagent dilutions were done with FACS buffer (PBS containing 2% fetal calf serum and 0.05% sodium azide (NaN3). All acquisitions were performed on a Cyan ADP (Beckman Coulter) flow cytometer. Data were analyzed with FlowJo software (Ashland, Oreg.). Cellular debris and dead cells were excluded by their light-scattering characteristics.

PBMCs = assay: Lymphocyte populations in treated PBMCs; assay type: cell-based, human; conditions: PBMCs under treatment
HIV-1 strain Ada-MR5 = assay: HIV-1 p24 production in infected activated PBMCs (ELISA); assay type: cell-based; conditions: stimulated PBMCs, supernatant 6 days post-infection, increasing concentrations
Text: FIG. 1. Potency of quinoline derivatives to inhibit HIV-1 production in PBMC- and macrophages-infected cells. […] Each point represents 6 donors. B) HIV-1 strain YU2 was used to infect triplicate of monocyte derived-macrophages from different donors in the absence or presence of increasing concentrations of Compound 22. […] Each point represents 8 donors.
Buffy coats from HIV-negative individuals were obtained from the local blood donation center in Zurich, Switzerland (http://www.blutspendezurich.ch/) and Centre de transfusion sanguine Montpellier. Human peripheral blood mononuclear cells (PBMCs) were isolated by Ficoll (Axis-Shield PoC AS) gradient centrifugation. The cells have then been cultivated at 37° C., 5% CO2 to a density of 1×10^6 cells/mL in RPMI Glutamax medium (Life Technologies Ref 61870-010) supplemented with 10% fetal calf serum (FCS) (Thermo Fischer Ref SV30160.03), 1000 U/mL of IL2 (Peprotech Ref 200-02) and 5 μg/mL of PHA (Roche Ref 1249738) for activation. Three days later, cells have been pooled and resuspended to a density of 1×10^6 cells/mL in RPMI Glutamax medium supplemented with 10% fetal calf serum (FCS) 1000 U/mL of IL-2 for infection. HIV-1 infection has been performed with 10 μg of Ada-M R5 HIV strain per mL of cells for 4 hours. […]
Cells were treated with 0.01 μM up to 30 μM and p24 antigen levels were monitored in culture supernatant over a 12 day period. […]

[2] = 20 mg/kg twice a day, FACS at day 15

FC(F)(F)Oc1ccc(Nc2ccc3cccc(Cl)c3n2)cc1 [Compound 22, 8-chloro-N-(4-(trifluoromethoxy)phenyl)quinolin-2-amine]
inhibition of replication of viral strains harbouring resistance mutations (RT activity) [1]: very efficiently inhibits
genotoxicity (HIV-1; conclusion drawn from the mutation selection results): not genotoxic
Time of Selection (weeks) (HIV-1; human PBMCs, increasing drug pressure): 24 weeks
resistance-inducing mutations detected after treatment (HIV-1; treatment for at least 24 weeks): no resistance-inducing mutations detected
viral load (viral RNA) (JRCSF HIV-1 strain; 20 mg/kg twice a day oral gavage, 15 days of treatment): significantly reduce the viral load
CD8+/CD4+ ratio (JRCSF HIV-1 strain; [2]): restores CD8+/CD4+ ratio back to that of non-infected mice
depletion of CD4+ cells following infection (JRCSF HIV-1 strain; [2]): prevents depletion of CD4+ cells
populations of lymphocytes present in PBMCs (PBMCs): did not alter
inhibition of HIV-1 replication (p24 antigen) (HIV-1 strain Ada-MR5): dose dependent inhibition
